Assays:
Format in all cases: cell-based
MDCK cells = assay: Effects of Taxol on MDCK cells, Hoechst morphologies manually counted; details: 4.5 hours, 10 μM-1pM, FIG. 10
Experimental: In a second experiment, the effects of Taxol on MDCK cells and the different types of morphological effects were observed. A plurality of MDCK cells grown in 96 well plates were treated with Taxol for 4.5 hours at different concentrations (10 μM−1pM). They were then fixed, labeled with Hoechst, and imaged.
This experiment used a labeling protocol comprising: MEOH fix at −20°, Wash in PBS, Block in PBS/BSA/Serum/Triton-X 100, Incubate with 5 μg/ml Hoechst 10 minutes, and wash.
Cells were inspected for different morphologies and manually counted at each different drug concentration in one well. […] The next step is to test the automated Hoechst analysis of the first experiment with multiple drugs.

HeLa cells [1] = assay: Automated Hoechst image analysis of HeLa cells treated with 6 known compounds; details: 10 ug/mL, 24 hours, 10x objective, FIG. 11
Source text: In a third experiment, the purpose was to determine whether the automated analysis methods developed in the first experiment can detect differences in Hoechst morphology in the presence of 6 known compounds at one concentration and exposure time in one cell line. In this experiment, HeLa cells were separately treated with 6 compounds with known mechanism of action. The quantitative methods described in the first experiment were applied to the Hoechst images.
Approximately 5,000 HeLa cells per well were plated in a Costar black-walled 96 well tissue culture treated plate and left to recover in the incubator for 24 hours. After this time, 10 ug/mL of cytochalasin D (CD), Taxol, hydroxyurea, vinblastine, nocodazole, and staurosporine was added to different wells at a 1:100 addition in DMSO. The cells were incubated in the presence of drug for 24 more hours. After 24 hours, the cells were removed and fixed as in the first experiment. Then, 9 images per well were collected of the Hoechst staining using a 10× objective.
The low magnification images taken of Hoechst were run through the automated image analysis method described in the first experiment. Plots of the average intensity and area were made of each compound. […] The scatter plots of each compound are visually distinct. […] Furthermore, the number of cells per well was very different (data not shown).

HeLa cells [2] = assay: High magnification Hoechst and phalloidin images of HeLa cells in the presence of drugs; details: 10 ug/mL, 24 hours, 40x objective, vs DMSO control, FIG. 12
Experimental: A fourth experiment was performed to obtain high magnification images of two markers in the presence of drugs. In this experiment, HeLa cells were treated with 80 generic compounds with known mechanism of action. The quantitative methods described in the first experiment were applied to the Hoechst images.
Approximately 5,000 HeLa cells per well were plated in a Costar black walled 96 well tissue culture-treated plate and left to recover in the incubator for 24 hours. After this time, 10 ug/mL of each compound from the Killer Plate from Microsource Discovery Systems (Gaylordsville, Conn.) was added to different wells at a 1:100 addition in DMSO. The cells were incubated in the presence of drug for 24 more hours. After 24 hours, the cells were removed and fixed as in the first experiment. In addition to being labeled with Hoechst 33342 (against chromatin), cells were also labeled with 1 unit of rhodamine-conjugated phalloidin (against actin) for 30 minutes.
The 96 well plate was imaged twice. Once, 9 images per well were collected of the Hoechst staining using a 10× objective. After this, one image per well of both the phalloidin and Hoechst staining was collected using a 40× objective.
The resulting high magnification images were analyzed qualitatively and distinct pattern differences were detected in both the Hoechst and phalloidin images. […] The top row is the Hoechst staining, and the bottom row is the phalloidin staining from the same well. The columns show the images from wells treated with just DMSO (control), cytochalasin D, and Colchicine. Notice that the morphology of each marker is different in the presence of each drug.

Compound | cell (Hoechst object) size/area compared to control (HeLa cells [1]) | actin cytoskeleton morphology in the phalloidin image (HeLa cells [2]) | also measured
CC(=O)O[C@H]1C(=O)[C@@]2(C)[C@H]([C@H](OC(=O)c3ccccc3)[C@]3(O)C[C@H](OC(=O)[C@H](O)[C@@H](NC(=O)c4ccccc4)c4ccccc4)C(C)=C1C3(C)C)[C@]1(OC(C)=O)CO[C@@H]1C[C@@H]2O [Taxol, paclitaxel] | – | – | number of normal mitotic cells as a function of drug concentration (MDCK cells): fewer number of normal mitotic cells were detected; proportion of cells undergoing apoptosis as a function of drug concentration (MDCK cells): larger proportion of cells underwent apoptosis
NC(=O)NO [Hydroxyurea, hydroxyurea] | larger | – | brightness (average Hoechst intensity) compared to control (HeLa cells [1]): brighter
C=C1[C@@H](C)[C@H]2[C@H](Cc3ccccc3)NC(=O)[C@]23[C@H](OC(C)=O)/C=C/[C@@](C)(O)C(=O)[C@@H](C)C/C=C/[C@H]3[C@@H]1O [cytochalasin D] | smaller than control | expected effect in the phalloidin image | morphology of the chromatin in the Hoechst image (HeLa cells [2]): there is an effect in the morphology of the chromatin
COc1cc2c(c(OC)c1OC)-c1ccc(OC)c(=O)cc1[C@@H](NC(C)=O)CC2 [colchicine] | – | there is an effect on the actin cytoskeleton | –

— patent US6743576B1, “Database system for predictive cellular bioinformatics” (Cytokinetics, Inc., priority 1999, dated 2004)
